Drawing on patent US4535159A, “Process for producing 1-position amino-derivatives of 1-(3',4'-methylenedioxyphenyl)propane-2-ol” (Ferrer Internacional, S.A., priority 1981, dated 1985), this text covers ED50 and LD50 for 15 molecules.

One data set deals with Swiss male mice. Briefly: Analgesic activity, phenylquinone test (Siegmund et al), oral administration in Swiss male mice. The conditions noted are these: Mus musculus. The format is in vivo. An excerpt: (a) Analgesic activity.-Analgesic activity has been determined in Swiss male mice by orally administering the compounds according to the phenylquinone test, as described by Siegmund et al (Proc. Soc.Exp.Biol.Med., 95, 729, 1957). From the analgesia values obtained, the ED50 for each compound has been calculated.

Data set [1] can be described thus: Acute toxicity, oral administration in female and male Swiss mice (Reed-Muench method as modified by Pizzi). The note with it: mouse, in vivo. An excerpt:
(b) Acute toxicity.-Acute toxicity has been determined in both female and male Swiss mice by oral administration according to the method by Reed-Muench as modified by Pizzi (Human Biology, 22(3), 151-190, 1950).

As for `CC(=O)Oc1ccccc1C(=O)O` [Acetylsalicylic acid, reference compound], it took a dose of 72 mg/kg to reach the 50% effect level in the data set with Swiss male mice (ED50).

`C[C@H](O)[C@@H](c1ccc2c(c1)OCO2)N1CCCCCC1` (relative stereo) [Example 8, d,l-erythro-1-(3',4'-methylenedioxyphenyl)-1-homopiperidino-propane-2-ol] had an ED50 in the data set with Swiss male mice of 45.5 mg/kg. Further, the LD50 in data set [1] worked out at 233 mg/kg.

The molecule `C[C@H](O)[C@@H](c1ccc2c(c1)OCO2)N1CCCC1` (relative stereo) [Example 7, d,l-erythro-1-(3',4'-methylenedioxyphenyl)-1-pyrrolidinopropane-2-ol] showed an ED50 in the data set on Swiss male mice of 140 mg/kg. For the same molecule, in data set [1], the LD50 is 599 mg/kg.

`C[C@H](O)[C@H](NCc1ccccc1)c1ccc2c(c1)OCO2` (relative stereo) [Example 9, d,l-erythro-1-(3',4'-methylenedioxyphenyl)-1-benzylaminopropane-2-ol] yielded an ED50 in the data set with Swiss male mice of 28.8 mg/kg. In data set [1], this molecule gave an LD50 of 252 mg/kg.

As to `C[C@H](O)[C@H](NC1CC1)c1ccc2c(c1)OCO2` (relative stereo) [Example 12, d,l-erythro-1-(3',4'-methylenedioxyphenyl)-1-cyclopropylaminopropane-2-ol], the ED50 in the data set on Swiss male mice is 62.3 mg/kg. This molecule also registered an LD50 in data set [1] of 780 mg/kg.

The molecule `C[C@H](O)[C@H](NC1CCCCC1)c1ccc2c(c1)OCO2` (relative stereo) [Example 13, d,l-erythro-1-(3',4'-methylenedioxyphenyl)-1-cyclohexylaminopropane-2-ol] came in with a median effective dose (ED50) in the data set with Swiss male mice of 31.7 mg/kg. Moreover, the LD50 in data set [1] is 245 mg/kg.

With `C[C@H](O)[C@@H](c1ccc2c(c1)OCO2)N1CCN(Cc2ccccc2)CC1` (relative stereo) [Example 3, d,l-erythro-1-(3',4'-methylenedioxyphenyl)-1-(4-benzyl-1-piperazinyl)propane-2-ol], the 50% effect level with Swiss male mice (ED50) was put at a dose of 29.7 mg/kg. This molecule yielded an LD50 in data set [1] of 256 mg/kg.

In turn, `C[C@H](O)[C@@H](c1ccc2c(c1)OCO2)N(C)Cc1ccccc1` (relative stereo) [Example 10, d,l-erythro-1-(3',4'-methylenedioxyphenyl)-1-(N-methylbenzylamino)-propane-2-ol] came in with an ED50 in the data set with Swiss male mice of 33.8 mg/kg. The same molecule displayed an LD50 in data set [1] of 360 mg/kg.

In turn, `CCN(CC)[C@H](c1ccc2c(c1)OCO2)[C@H](C)O` (relative stereo) [Example 4, d,l-erythro-1-(3',4'-methylenedioxyphenyl)-1-diethylamino-propane-2-ol] came in with an ED50 in the data set with Swiss male mice of 107 mg/kg. Moreover, the LD50 in data set [1] was determined as 317 mg/kg.

`C[C@H](O)[C@@H](c1ccc2c(c1)OCO2)N1CCC(O)CC1` (relative stereo) [Example 6, d,l-erythro-1-(3',4'-methylenedioxyphenyl)-1-(4-hydroxypiperidine)-propane-2-ol] came in with an ED50 in the data set with Swiss male mice of 109 mg/kg. Further, the LD50 in data set [1] came out at 1060 mg/kg.

`COc1ccc2c3c1O[C@H]1[C@@H](O)C=C[C@H]4[C@@H](C2)N(C)CC[C@@]341` [Codeine, reference compound] returned a 50% effective dose (ED50) with Swiss male mice of 1.97 mg/kg.

Take `C[C@H](O)[C@@H](c1ccc2c(c1)OCO2)N1CCCCC1` (relative stereo) [Example 5, d,l-erythro-1-(3',4'-methylenedioxyphenyl)-1-piperidinepropane-2-ol]: the 50% effect level with Swiss male mice (ED50) was put at a dose of 33.3 mg/kg. Also, the LD50 in data set [1] was found to be 277 mg/kg.

For `Cc1c(N(C)C)c(=O)n(-c2ccccc2)n1C` [Aminophenazone, reference compound], the ED50 with Swiss male mice is 23.4 mg/kg.

As to `C[C@H](O)[C@@H](c1ccc2c(c1)OCO2)N(C)C1CCCCC1` (relative stereo) [Example 11, d,l-erythro-1-(3',4'-methylenedioxyphenyl)-1-(N-methylcyclohexylamino)-propane-2-ol], in the data set with Swiss male mice, it took a dose of 29.8 mg/kg to reach the 50% effect level (ED50). In data set [1], the LD50 is 167 mg/kg.

As for `C[C@H](O)[C@@H](c1ccc2c(c1)OCO2)N1CCOCC1` (relative stereo) [Example 2, d,l-erythro-1-(3',4'-methylenedioxyphenyl)-1-morpholine-propane-2-ol], the 50% effect level in the data set with Swiss male mice (ED50) was put at a dose of 25.7 mg/kg. Besides, in data set [1], the LD50 was 1200 mg/kg.
